Laboratory results published in ChEMBL document CHEMBL4765389, “Antimicrobial and anti-inflammatory activities of short dodecapeptides derived from duck cathelicidin: Plausible mechanism of bactericidal action and endotoxin neutralization” (Eur J Med Chem, 2020).
Active and inactive are the calls of the source. The calls are words filed in the database; no cut-off is given here.

Columns and labels:
Candida albicans [1] = assay: Antifungal activity against Candida albicans KCTC 7121 assessed as reduction in fungal growth incubated for 24 hrs by CLSI based broth dilution method; assay type: functional; conditions: read-out: MIC100
Staphylococcus aureus [2] = assay: Antibacterial activity against methicillin-resistant Staphylococcus aureus CCARM 3089 assessed as reduction in bacterial growth incubated for 24 hrs by CLSI based broth dilution method; assay type: functional; conditions: read-out: MIC100
[3] = Hemolytic activity in sheep RBC assessed as reduction in hemoglobin at 64 uM incubated for 1 hr; assay type: ADME, cell-based, Ovis aries, Erythrocyte; conditions: sheep red blood cells (erythrocytes), read-out: Activity
Saccharomyces cerevisiae = assay: Antifungal activity against yeast assessed as reduction in fungal growth incubated for 24 hrs by CLSI based broth dilution method; assay type: functional; conditions: read-out: MIC100
[4] = Cytotoxicity against mouse RAW264.7 cells assessed as reduction in cell viability at 20 uM incubated for 24 hrs by MTT assay; assay type: cell-based; conditions: read-out: INH
Erythrocyte [5] = assay: Hemolytic activity in sheep RBC assessed as reduction in hemoglobin incubated for 1 hr; assay type: ADME, cell-based, Ovis aries
[6] = Cytotoxicity against mouse NIH/3T3 cells assessed as reduction in cell viability at 20 uM incubated for 24 hrs by MTT assay; assay type: cell-based, NIH3T3; conditions: NIH/3T3 cells, read-out: INH
[7] = Antibacterial activity against multidrug-resistant Pseudomonas aeruginosa CCARM 2109 assessed as reduction in bacterial growth incubated for 24 hrs by CLSI based broth dilution method; assay type: functional; conditions: read-out: MIC100
Staphylococcus aureus [8] = assay: Antibacterial activity against Staphylococcus aureus KCTC 1621 assessed as reduction in bacterial growth incubated for 24 hrs by CLSI based broth dilution method; assay type: functional; conditions: read-out: MIC100
[9] = Therapeutic index, ratio of HC10 for sheep RBC to geometric mean MIC for gram positive bacteria; assay type: toxicity; conditions: sheep red blood cells, read-out: TI
Candida albicans [10] = assay: Antifungal activity against Candida albicans KCTC 7965 assessed as reduction in fungal growth incubated for 24 hrs by CLSI based broth dilution method; assay type: functional; conditions: read-out: MIC100
[11] = Retention time of the compound by RP-HPLC method; assay type: physicochemical
Bacteria [12] = assay: Antibacterial activity against Gram negative bacteria assessed as reduction in bacterial growth incubated for 24 hrs by CLSI based broth dilution method; assay type: functional; conditions: read-out: MIC100
[13] = Therapeutic index, ratio of HC10 for sheep RBC to geometric mean MIC for gram negative bacteria; assay type: toxicity; conditions: sheep red blood cells, read-out: TI
[14] = system: Staphylococcus epidermidis; assay: Antibacterial activity against Staphylococcus epidermidis KCTC 1917 assessed as reduction in bacterial growth incubated for 24 hrs by CLSI based broth dilution method; assay type: functional; conditions: read-out: MIC100
Escherichia coli [15] = assay: Antibacterial activity against Escherichia coli KCTC 1682 assessed as reduction in bacterial growth incubated for 24 hrs by CLSI based broth dilution method; assay type: functional; conditions: read-out: MIC100
Staphylococcus aureus [16] = assay: Antibacterial activity against methicillin-resistant Staphylococcus aureus CCARM 3095 assessed as reduction in bacterial growth incubated for 24 hrs by CLSI based broth dilution method; assay type: functional; conditions: read-out: MIC100
Salmonella typhimurium = assay: Antibacterial activity against Salmonella typhimurium KCTC 1926 assessed as reduction in bacterial growth incubated for 24 hrs by CLSI based broth dilution method; assay type: functional, Salmonella enterica subsp. enterica serovar Typhimurium; conditions: Salmonella enterica, read-out: MIC100
Bacteria [17] = assay: Antibacterial activity against Gram positive bacteria assessed as reduction in bacterial growth incubated for 24 hrs by CLSI based broth dilution method; assay type: functional; conditions: read-out: MIC100
[18] = Therapeutic index, ratio of HC10 for sheep RBC to geometric mean MIC for yeast; assay type: toxicity; conditions: sheep red blood cells, read-out: TI
Pseudomonas aeruginosa = assay: Antibacterial activity against Pseudomonas aeruginosa KCTC 1637 assessed as reduction in bacterial growth incubated for 24 hrs by CLSI based broth dilution method; assay type: functional; conditions: read-out: MIC100
[19] = Antibacterial activity against multidrug-resistant Pseudomonas aeruginosa CCARM 2095 assessed as reduction in bacterial growth incubated for 24 hrs by CLSI based broth dilution method; assay type: functional; conditions: read-out: MIC100
[20] = Cytotoxicity against mouse RAW264.7 cells assessed as reduction in cell viability at 10 uM incubated for 24 hrs by MTT assay; assay type: cell-based; conditions: read-out: INH
Bacillus subtilis = assay: Antibacterial activity against Bacillus subtilis KCTC 3068 assessed as reduction in bacterial growth incubated for 24 hrs by CLSI based broth dilution method; assay type: functional; conditions: read-out: MIC100
[21] = Cytotoxicity against mouse NIH/3T3 cells assessed as reduction in cell viability at 10 uM incubated for 24 hrs by MTT assay; assay type: cell-based, NIH3T3; conditions: read-out: INH
Staphylococcus aureus [22] = assay: Antibacterial activity against methicillin-resistant Staphylococcus aureus CCARM 3090 assessed as reduction in bacterial growth incubated for 24 hrs by CLSI based broth dilution method; assay type: functional; conditions: read-out: MIC100
Enterococcus faecium = assay: Antibacterial activity against vancomycin-resistant Enterococcus faecium ATCC 51559 assessed as reduction in bacterial growth incubated for 24 hrs by CLSI based broth dilution method; assay type: functional; conditions: read-out: MIC100
Erythrocyte [23] = assay: Hemolytic activity in sheep RBC assessed as reduction in hemoglobin at 256 uM incubated for 1 hr; assay type: ADME, cell-based, Ovis aries
Escherichia coli [24] = assay: Bacteriostatic activity against Escherichia coli KCTC 1682 assessed as reduction in colony forming unit at 0.5 times MIC measured for 12 hrs by time kill assay; assay type: functional, organism-based
Escherichia coli [25] = assay: Bacteriostatic activity against Escherichia coli KCTC 1682 assessed as reduction in colony forming unit at 0.5 times MIC measured for 24 hrs by time kill assay; assay type: functional
RAW264.7 [26] = assay: Antiinflammatory activity against mouse RAW264.7 cells assessed as reduction in LPS-induced TNFalpha level at 10 uM incubated for 24 hrs by […] relative to control; assay type: functional
RAW264.7 [27] = assay: Antiinflammatory activity in mouse RAW264.7 cells assessed as neutralization of LPS binding by measuring LPS-FITC aggregation at 10 uM pretreated with LPS for 1 hr followed by compound addition and measured after 1 hr by flowcytometry analysis (reference value: 48.12 %); assay type: functional
Lipopolysaccharide (LPS) = assay: Inhibition of Escherichia coli O111:B4 LPS aggregation assessed as increase in FITC-LPS dissociation at 2 uM by spectrofluorometry
RAW264.7 [28] = assay: Antiinflammatory activity against mouse RAW264.7 cells assessed as reduction in LPS-induced nitrite level at 5 uM incubated for 24 hrs by Griess reagent based assay relative to control; assay type: functional
RAW264.7 [29] = assay: Antiinflammatory activity in mouse RAW264.7 cells assessed as suppression of LPS binding by measuring LPS-FITC aggregation at 10 uM pretreated with LPS for 1 hr followed by compound addition and measured after 30 mins by flowcytometry analysis (reference value: 67.93 %); assay type: functional; conditions: 0.5 h

Row | Compound | MIC (Candida albicans [1]) [µM] | MIC (Staphylococcus aureus [2]) [µM] | MIC (Saccharomyces cerevisiae) [µM] | cytotoxicity at 24 h, 20 µM [4] [%] | HC10 (Erythrocyte [5]) [µM] | cytotoxicity at 24 h, 20 µM [6] [%] | MIC [7] [µM] | MIC (Staphylococcus aureus [8]) [µM] | selectivity ratio [9] | MIC (Candida albicans [10]) [µM] | Retention_time [11] [min] | MIC (Bacteria [12]) [µM] | selectivity ratio [13] | MIC [14] [µM] | MIC (Escherichia coli [15]) [µM] | MIC (Staphylococcus aureus [16]) [µM] | MIC (Salmonella typhimurium) [µM] | MIC (Bacteria [17]) [µM] | selectivity ratio [18] | MIC (Pseudomonas aeruginosa) [µM] | further results
1 | H-FWQLVPLAIKIYRAWKRR-NH2 | 16 | 32 | 16 | < 10 | 1.3 | < 10 | 32 | 8 | 0.1 | 16 | 29 | 20.8 | 0.1 | 16 | 16 | 32 | 8 | 20.5 | 0.1 | 16 | hemolysis at 1 h, 64 µM [3]: 100%; MIC [19]: 32 µM; cytotoxicity at 24 h, 10 µM [20]: 40%; MIC (Bacillus subtilis): 8 µM; cytotoxicity at 24 h, 10 µM [21]: 40%; MIC (Staphylococcus aureus [22]): 16 µM; MIC (Enterococcus faecium): 32 µM; Activity (Erythrocyte [23]): Non-Toxic
2 | O=C(N[C@H](CO)[C@H](O)c1ccc([N+](=O)[O-])cc1)C(Cl)Cl |  |  |  |  |  |  |  |  |  |  |  |  |  |  |  |  |  |  |  |  | Activity (Escherichia coli [24]): Active; Activity (Escherichia coli [25]): inactive
3 | H-LAIKIYRAWKRR-NH2 | 16 | 32 | 12 | < 10 | > 256 | < 10 | 16 | 8 | 243 | 8 | 16.4 | 15.2 | 33.7 | 4 | 16 | 32 | 8 | 21.1 | 42.7 | 4 | inhibition at 10 µM (RAW264.7 [26]): < 10%; Activity (RAW264.7 [27]): 42.35%; inhibition (Lipopolysaccharide (LPS)): Active; inhibition at 5 µM (RAW264.7 [28]): < 10%; Activity (RAW264.7 [29]): 59.24%; MIC [19]: 32 µM; MIC (Bacillus subtilis): 8 µM; MIC (Staphylococcus aureus [22]): 32 µM; MIC (Enterococcus faecium): 32 µM; Activity (Erythrocyte [23]): Non-Toxic
